PMC8080777, “Discovery, optimization, and evaluation of non-bile acid FXR/TGR5 dual agonists” (Scientific Reports, 2021)

Columns and labels:
FXR = biological target: T1, FXR (Homo sapiens, UniProt Q96RI1); assay: CHO cell-based FXR luciferase reporter assay (Indigo Biosciences); details: for FXR Efficacy (%) (1 µM) / FXR Efficacy (%) (0.1 µM) / FXR Efficacy (%) (10 µM): % vs OCA 1 µM as 100%
T1 construct: host or cells: CHO cells
T1 sequence (Q96RI1 1-486): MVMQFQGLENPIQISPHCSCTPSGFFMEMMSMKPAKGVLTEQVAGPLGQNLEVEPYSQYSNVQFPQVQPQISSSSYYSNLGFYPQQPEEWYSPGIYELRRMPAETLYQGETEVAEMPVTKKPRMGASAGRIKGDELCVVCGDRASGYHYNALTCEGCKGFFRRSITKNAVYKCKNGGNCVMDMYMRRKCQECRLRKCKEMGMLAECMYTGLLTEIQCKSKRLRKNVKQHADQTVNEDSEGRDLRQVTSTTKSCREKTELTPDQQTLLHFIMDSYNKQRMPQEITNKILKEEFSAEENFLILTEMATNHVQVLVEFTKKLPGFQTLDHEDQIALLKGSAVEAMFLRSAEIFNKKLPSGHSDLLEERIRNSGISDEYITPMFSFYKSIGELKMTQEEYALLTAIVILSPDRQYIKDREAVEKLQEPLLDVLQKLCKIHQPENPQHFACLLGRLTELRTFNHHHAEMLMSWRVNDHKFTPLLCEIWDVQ
Description: To evaluate direct agonist activities against FXR, test compounds were evaluated using a CHO cell-based FXR assay by Indigo Biosciences (State College, PA), in which cells were transfected with an FXR luciferase reporter system.
To directly evaluate the in vitro agonist activity towards FXR, test compounds were evaluated in CHO cells transfected with FXR responsive luciferase reporter (Nuclear Receptor & In Vitro Toxicology Solutions, Indigo Biosciences, State College, PA, USA). […] Each compound was tested in duplicate, and the average value was reported[35],[36].
(§1) The cell recovery medium (CRM, Human Farnesoid X Receptor (NR1H4, FXR reporter assay system, Indigo Biosciences, State College, PA, USA) and compound screening medium (CSM, Human Farnesoid X Receptor (NR1H4, FXR reporter assay system, Indigo Biosciences, State College, PA, USA) were removed from the freezer and thawed in a water bath at 37 °C. Test compounds were dissolved in dimethyl sulfoxide (DMSO, FUJIFILM Wako Pure Chemical Corporation, Osaka city, Osaka, Japan), and the treatment medium was prepared and diluted with CSM to achieve a final concentration of 0.2% total DMSO. The reporter cells were thawed by transferring 3.3 mL CRM at 37 °C into tubes of frozen cells. The tube containing reporter cells was recapped, and it was immediately place in a 37 °C water bath for 5 min. The reporter cells were gently inverted several times, and 100 µL cell suspension was dispensed into each well. One hundred microliters of treatment media was added into wells. Subsequently, the assay plate was kept at 37 °C, and it was incubated with 5% CO2 for 22 h. To prepare luciferase detection reagent (LDR), the detection substrate was gently mixed with detection buffer, media contents were removed from each well, and 100 µL LDR was added to each well of the assay plate. The assay plate was allowed to rest at room temperature for 5 min, and luminescence was quantified using the Multi-Mode Microplate Reader (FlexStation 3, Molecular Devices Inc., San Jose, CA, USA)[36].
S4. In vitro, in vivo assay, and selectvity.
To directly evaluate the in vitro agonist activity towards FXR, test compounds were evaluated in CHO cells transfected with FXR responsive luciferase reporter (Nuclear Receptor & In Vitro Toxicology Solutions, Indigo Biosciences, State College, PA, USA). Cells were incubated with […]
(FlexStation 3, Molecular Devices Inc., San Jose, CA, USA). Efficacies are reported relative to […]
reporter on of 1 µM. Each compound was tested in duplicate, and the average value was […]
as §1, with “sulfoxide (DMSO ,” for “sulfoxide (DMSO,”, “Osaka, Jap an),” for “Osaka, Japan),”, “a 37°C” for “a 37 °C”, “5% CO 2” for “5% CO2”, “using […]” for “using the Multi-Mode Microplate Reader (FlexStation 3, Molecular Devices Inc., San Jose, CA, USA)[36].”

TGR5 = biological target: T2, TGR5 (Homo sapiens, UniProt Q8TDU6); assay: TGR5 cAMP assay in CHO cells transfected with TGR5 (cAMP Hunter eXpress, Discover X); format: cell-based
T2 construct: host or cells: CHO cells
T2 sequence (Q8TDU6 1-330): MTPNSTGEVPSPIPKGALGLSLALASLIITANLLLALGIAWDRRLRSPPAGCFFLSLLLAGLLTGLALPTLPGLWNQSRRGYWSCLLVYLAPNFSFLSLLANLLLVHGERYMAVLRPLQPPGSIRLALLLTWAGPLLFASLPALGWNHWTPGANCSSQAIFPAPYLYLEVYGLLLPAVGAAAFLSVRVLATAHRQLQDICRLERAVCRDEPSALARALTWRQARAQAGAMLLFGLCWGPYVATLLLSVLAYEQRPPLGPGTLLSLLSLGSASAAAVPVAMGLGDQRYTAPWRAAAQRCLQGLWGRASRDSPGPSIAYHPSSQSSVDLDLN
Description: TGR5 agonist activity was evaluated by transfecting CHO cells with TGR5 using the Discover X expression kit (cAMP Hunter eXpress GPCR Assay, Discover X Fremont, CA). Cells were incubated with test compounds for 0.5 h, and intracellular cAMP levels were measured using the multi-mode microplate reader.
(§2) TGR5 agonist activity was evaluated by transfecting CHO cells with TGR5 using the Discover X expression kit (cAMP Hunter eXpress Assay Kit, Discover X Fremont, CA, USA). Cells were incubated with the test compounds for 0.5 h, and intracellular cAMP levels were measured using Multi-Mode Microplate Reader (FlexStation 3, Molecular Devices Inc., San Jose, CA, USA).
Each compound was tested at concentrations of 10, 1, or 0.1 µM in duplicate (n = 2), with the average value shown.
S4. In vitro, in vivo assay, and selectvity. […]
In vitro TGR5 agonist assay protocol
as §2
Each compound was tested at concentrations of 10, 1, or 0.1 µM in duplicate (n=2), with the […]
parameter logistic equation, Y = min + (max - min)/(1 + 10^(n * (log10(EC50) - log10(conc)))), in […]

SMILES | FXR agonist activity (in words) (FXR) | FXR Efficacy (%) (1 µM) (FXR) | TGR5 Efficacy (%) (10 µM) (TGR5; % vs INT-767 10 µM as 100%) | FXR Efficacy (%) (0.1 µM) (FXR) | TGR5 Efficacy (%) (1 µM) (TGR5; % vs INT-767 10 µM as 100%) | FXR Efficacy (%) (10 µM) (FXR) | TGR5 agonist activity (in words) (TGR5) | TGR5 Efficacy (%) (0.1 µM) (TGR5; 0.1 µM, % vs INT-767 10 µM as 100%)
CN(C)c1ccc(-c2ccc(CN(C(=O)c3ccc(O)cc3Cl)c3cc(Cl)cc(Cl)c3)cc2)cc1 [Compound 13af] | strong FXR activities | 108.2% | -0.2% | – | – | – | – | –
COc1cc(Cl)cc(N(CC23CCC(c4ccc(N(C)C)cc4)(CC2)CC3)C(=O)c2ccncc2C)c1 [Compound 20t] | – | 77.3% | – | 32.8% | 25.0% | – | – | –
COC(=O)/C=C/c1cccc(N(Cc2ccc(-c3ccc(N(C)C)cc3)cc2)C(=O)c2ccccc2)c1 [Compound 13d] | – | 24.5% | 0.0% | – | – | 88.9% | – | –
Cc1cnccc1C(=O)N(C[C@H]1CC[C@H](c2ccccc2)CC1)c1cc(Cl)cc(Cl)c1 [Compound 20a] | – | 52.2% | 22.3% | – | – | – | – | –
Cc1cc(F)ccc1N(Cc1ccc(-c2ccc(N(C)C)cc2)cc1)C(=O)c1cccnc1 [Compound 13g] | – | 1.2% | 0.8% | – | – | – | – | –
COC(=O)/C=C/c1cccc(N(Cc2ccc(-c3ccc(N(C)C)cc3)cc2)C(=O)c2ccncc2C)c1 [Compound 13a] | strong FXR agonist activity with full efficacy | 24.6% | -3.1% | – | – | 100.2% | inactive against TGR5 | –
Cc1cnccc1C(=O)N(Cc1ccc(-c2ccc(N(C)C)cc2)cc1)c1cc(Cl)cc(Br)c1 [Compound 13k] | dual potencies against both FXR and TGR5 | 75.9% | 47.4% | – | – | – | dual potencies against both FXR and TGR5 | –
CN(C)c1ccc(-c2ccc(CN(C(=O)c3ccncc3C3CC3)c3cc(Cl)cc(Cl)c3)cc2)cc1 [Compound 13w] | – | 22.7% | 73.1% | – | – | – | – | –
Cc1cnccc1C(=O)N(CC12CCC(c3ccc(N(C)C)cc3)(CC1)CC2)c1cc(Cl)cc(Cl)c1 [Compound 20s] | high potency against FXR | 95.3% | – | 56.4% | 18.9% | – | – | –
Cc1cc(C)cc(N(Cc2ccc(-c3ccc(N(C)C)cc3)cc2)C(=O)c2ccncc2C)c1 [Compound 13l] | – | 37.6% | 48.5% | – | – | – | – | –
CN(C)c1ccc(-c2ccc(CN(C(=O)C3CCC(O)CC3)c3cc(Cl)cc(Cl)c3)cc2)cc1 (stereo not shown) [Compound 13ae] | strong FXR activities | 101.4% | -1.5% | – | – | – | – | –
COC(=O)/C=C/c1ccc(C)c(N(Cc2ccc(-c3ccc(N(C)C)cc3)cc2)C(=O)c2ccncc2C)c1 [Compound 13h] | – | 25.3% | 0.2% | – | – | – | – | –
COc1ccc([C@@H]2CC[C@@H](CN(C(=O)c3ccncc3C)c3cc(Cl)cc(Cl)c3)C(C)C2)cc1C (stereo partly shown) [Compound 20e] | partial FXR agonists | 69.1% | 33.9% | – | – | 72.6% | weak TGR5 agonist | –
Cc1cnccc1C(=O)N(CC12CCC(c3ccc4c(c3)OCO4)(CC1)CC2)c1cc(Cl)cc(Cl)c1 [Compound 20n] | – | 98.9% | 67.6% | 73.5% | – | – | – | –
CN(C)c1ccc(-c2ccc(CN(C(=O)c3ccccc3Cl)c3cc(Cl)cc(Cl)c3)cc2)cc1 [Compound 13ac] | strong FXR activities | 84.3% | 0.2% | – | – | – | – | –
CN(C)c1ccc(-c2ccc(CN(C(=O)c3ccncc3C(F)(F)F)c3cc(Cl)cc(Cl)c3)cc2)cc1 [Compound 13z] | – | 10.6% | 24.4% | – | – | – | – | –
CCc1cnccc1C(=O)N(Cc1ccc(-c2ccc(N(C)C)cc2)cc1)c1cc(Cl)cc(Cl)c1 [Compound 13v] | – | 21.3% | 65.3% | – | – | – | – | –
Cc1cnccc1C(=O)N(Cc1ccc(-c2ccc(N(C)C)cc2)cc1)c1cc(Cl)cc(-c2cnn(C(C)C)c2)c1 [Compound 13o] | – | 68.8% | -1.5% | – | – | – | – | –
CN(C)c1ccc(-c2ccc(CN(C(=O)c3ccncc3Cl)c3cc(Cl)cc(Cl)c3)cc2)cc1 [Compound 13x] | – | 62.1% | 9.8% | – | – | – | – | –
COc1ccc([C@H]2CC[C@H](CN(C(=O)c3ccncc3C)c3cc(Cl)cc(Cl)c3)CC2)cc1C [Compound 20d] | partial FXR agonists | 55.2% | 28.8% | – | – | 129.6% | weak TGR5 agonist | –
COc1ccc(C23CCC(CN(C(=O)c4ccncc4C)c4cc(Cl)cc(Cl)c4)(CC2)CC3)cc1C [Compound 20f] | partial FXR agonists | 90.3% | 28.8% | – | – | 64.3% | weak TGR5 agonist | –
CCC1C(O)C2C3CCC(C(C)CCOS(=O)(=O)O)C3(C)CCC2C2(C)CCC(O)CC12 (stereo not shown) [INT-767, reference compound] | – | – | 100% | – | 25.5% | – | – | 1.7%
